According to patent publication US11667631B2, “FGFR4 inhibitor, preparation method therefor, and applications thereof” (Jiangsu Hansoh Pharmaceutical Group Co., Ltd., priority 2016, dated 2023):
Read-outs that look alike come from different tables or passages of the source.

Assays:
Hep 3B cells = test: Inhibition of Hep 3B cell proliferation (CellTiter-Glo); assay type: cell-based; conditions: Homo sapiens, Hep3B
SK-HEP-1 cells = test: Inhibition of SK-HEP-1 cell proliferation (CellTiter-Glo); assay type: cell-based; conditions: Homo sapiens, read-out: SK-HEP-1 IC50
How it was run: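 Cells seeded and allowed to attach 16–24 h, then exposed to serially diluted compound for 72 h at 37 °C, 5% CO2. Viability read by CellTiter-Glo luminescence; IC50 fitted from inhibition rates across concentrations.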

Hep 3B cell line tumor = test: Pharmacodynamics test in vivo, Hep 3B tumor-bearing nude mice; conditions: Mus musculus, Hep3B, oral 30 mg/kg, 2 times/day, read-out: Tumor inhibition rate
Protocol: a, A Hep 3B cell line was taken from the cell bank, and the cells were resuscitated with the MEM culture medium (MEM+10% FBS+1% Glu+1% SP). The cells were placed in the cell culture bottle after resuscitation (cell type, date, and the name of the culturing person were marked on the bottle wall) and were incubated in a CO2 Incubator (the incubator temperature was 37° C., and the CO2 concentration was 5%).
b, The cells were passaged after 80-90% of the bottom of the culture bottle was covered by the cells. After passage, the cells were further incubated in the CO2 incubator. The process was repeated until the number of cells met the pharmacodynamic requirements in vivo.
c, The cultured cells were collected and counted by automatic cell counter. According to the counting results, the cells were resuspended with PBS to prepare a cell suspension (density: 7×10^7/mL), which was placed in the ice box for use.
a, Nude mouse was marked with a disposable universal ear tag for mouse and rat before inoculation, and the skin of the inoculated site was disinfected with 75% medical alcohol.
b, At the time of inoculation, the cell suspension was mixed well, 0.1˜1 mL of cell suspension was taken with a 1 mL syringe, after removing air bubbles, and the syringe was placed on an ice bag for use.
c, The nude mice were inoculated successively (the inoculated site was located on the right shoulder of the right back of the nude mice, and inoculated subcutaneously with 0.1 mL of cell suspension).
a, Tumor was measured on Day 14 to Day 16 after inoculation depending on the tumor growth, and tumor size was calculated.
Tumor volume calculation: tumor volume (mm^3)=length (mm)×width (mm)×width (mm)/2
b, According to the size of the tumor, the mice were grouped by random grouping.
c, According to the results of the grouping, the test drug was administered (administration method: oral administration, administration dose: 30 mg/kg, administration volume: 10 mL/kg, administration frequency: 2 times/day, […], vehicle: 0.5% CMC/1% Tween 80).
d, The tumor was measured and weighed twice a week after the test drug was administrated.
e, Animals were euthanized at the end of the test.

FGFR1 kinase = FGFR1 kinase (Homo sapiens (Human), UniProt P11362); test: Enzymologic experiment of FGFR1 (TR-FRET); assay type: biochemical; conditions: FGFR1 kinase activity
FGFR1 kinase, sequence (P11362 22-822): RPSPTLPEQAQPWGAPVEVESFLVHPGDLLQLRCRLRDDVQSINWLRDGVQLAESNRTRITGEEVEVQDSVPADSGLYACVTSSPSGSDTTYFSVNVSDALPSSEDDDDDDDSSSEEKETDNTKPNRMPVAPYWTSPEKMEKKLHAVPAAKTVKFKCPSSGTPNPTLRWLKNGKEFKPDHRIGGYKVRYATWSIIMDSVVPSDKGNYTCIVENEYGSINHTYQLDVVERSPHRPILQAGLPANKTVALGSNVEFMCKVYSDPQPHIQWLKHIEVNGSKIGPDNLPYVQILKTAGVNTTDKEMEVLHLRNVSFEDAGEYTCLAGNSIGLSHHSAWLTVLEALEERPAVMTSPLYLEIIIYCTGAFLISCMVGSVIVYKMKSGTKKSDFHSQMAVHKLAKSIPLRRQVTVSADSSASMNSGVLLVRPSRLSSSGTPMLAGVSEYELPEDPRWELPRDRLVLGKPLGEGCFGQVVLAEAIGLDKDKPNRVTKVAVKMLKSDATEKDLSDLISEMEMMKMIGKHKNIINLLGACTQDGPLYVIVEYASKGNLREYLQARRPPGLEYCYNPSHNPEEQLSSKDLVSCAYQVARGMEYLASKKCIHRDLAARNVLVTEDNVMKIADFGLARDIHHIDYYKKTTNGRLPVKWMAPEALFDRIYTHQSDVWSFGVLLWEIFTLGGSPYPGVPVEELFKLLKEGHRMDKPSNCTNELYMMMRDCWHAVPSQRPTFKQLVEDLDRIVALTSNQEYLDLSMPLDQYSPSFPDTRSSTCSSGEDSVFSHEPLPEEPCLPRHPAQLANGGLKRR
How it was run: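 FGFR1 at 0.1˜5 nM final with substrate peptide 5˜50 nM and ATP 10˜200 μM final, 0.5˜3 h at room temperature. Stopped with EDTA plus labeled antibody for 1 h; TR-FRET signal read at 665 nm, IC50 fitted from inhibition rates.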

HuH-7 cells = test: Inhibition of HuH-7 cell proliferation (CellTiter-Glo); assay type: cell-based; conditions: Homo sapiens, read-out: HuH-7 IC50
How it was run: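 HuH-7 cells plated and left 16–24 h, then exposed to serially diluted compound for 72 h at 37 °C, 5% CO2. Viability read by CellTiter-Glo luminescence. IC50 obtained by curve fitting of inhibition rates.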

[1] = Pharmacokinetic (PK) analysis in rats; assay type: in vivo, Sprague Dawley (SD) rats; conditions: SD rats, single intragastric administration, 5 mg/kg; for Peak Time tmax: (sampling in hours); for AUC(0-t) / AUC(0-inf) / half-life / Cmax / MRT: Sprague-Dawley, rat, plasma, po; for AUC(0-t): read-out: Area Under Curve AUC0-t; for AUC(0-inf): read-out: Area Under Curve AUC0-∞; for half-life: read-out: Half-Time t1/2 (converted); for Cmax: read-out: Plasma Concentration Cmax; for MRT: read-out: Mean Residence Time MRT
How it was run: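 Intravenous blood (0.2 ml) was collected into K2EDTA and centrifuged to obtain plasma. Plasma (40 μL) was protein-precipitated with 160 μL acetonitrile. Compound levels were measured by LC/MS/MS on a C18 column using 0.1% formic acid in water and acetonitrile at 0.8 mL/min.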

FGFR4 kinase = FGFR4 kinase (Homo sapiens (Human), UniProt P22455); test: Enzymologic experiment of FGFR4 (TR-FRET); assay type: biochemical; conditions: FGFR4 kinase activity
FGFR4 kinase, sequence (P22455 22-802): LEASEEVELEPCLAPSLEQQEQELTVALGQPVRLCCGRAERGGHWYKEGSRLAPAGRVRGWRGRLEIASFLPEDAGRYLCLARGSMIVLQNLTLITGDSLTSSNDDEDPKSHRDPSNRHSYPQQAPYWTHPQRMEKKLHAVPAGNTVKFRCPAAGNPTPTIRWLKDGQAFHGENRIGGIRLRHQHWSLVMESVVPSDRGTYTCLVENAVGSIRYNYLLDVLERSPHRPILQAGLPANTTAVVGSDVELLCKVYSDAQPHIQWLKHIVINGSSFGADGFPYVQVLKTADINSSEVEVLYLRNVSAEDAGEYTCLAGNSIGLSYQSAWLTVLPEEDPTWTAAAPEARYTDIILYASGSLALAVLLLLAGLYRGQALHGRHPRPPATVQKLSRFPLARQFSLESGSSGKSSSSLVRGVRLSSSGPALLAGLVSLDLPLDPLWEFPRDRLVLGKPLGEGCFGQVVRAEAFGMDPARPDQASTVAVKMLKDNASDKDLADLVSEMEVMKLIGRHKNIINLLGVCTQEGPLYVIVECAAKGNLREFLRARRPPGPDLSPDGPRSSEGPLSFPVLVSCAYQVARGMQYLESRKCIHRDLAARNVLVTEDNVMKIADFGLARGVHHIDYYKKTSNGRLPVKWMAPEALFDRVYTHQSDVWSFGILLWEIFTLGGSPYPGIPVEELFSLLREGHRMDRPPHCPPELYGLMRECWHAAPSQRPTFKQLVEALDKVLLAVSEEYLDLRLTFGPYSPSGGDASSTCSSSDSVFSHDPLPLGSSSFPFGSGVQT
Protocol: In this experiment, the inhibitory effect of the compounds on FGFR4 kinase activity was tested by a fluorescence resonance energy transfer (TR-FRET) method, and the half maximal inhibitory concentration (IC50) of the compounds on the FGFR4 kinase activity was determined.
2) 1˜5 μL of diluted solution in gradient of the compound was added.
3) 1˜5 μL of a substrate mixture containing substrate polypeptide with a final concentration of 5˜50 nM and ATP with a final concentration of 10˜200 μM was added.
4) The mixture was incubated for 0.5˜3 hours at room temperature.
5) 10 μL of EDTA and a test solution comprising labeled antibody were added, and the plate was incubated for 1 hour at room temperature.
7) The inhibition rates were calculated according to the fluorescence signal values.

[2] = 72 h, read-out: Hep 3B IC50, Hep 3B cell proliferation, 72 hours, CellTiter-Glo
[3] = 216 h, 9 days of administration
[4] = Hep 3B cell proliferation, 72 hours, CellTiter-Glo, read-out: Hep 3B IC50
[5] = SK-HEP1, SK-HEP-1 cell proliferation, 72 hours, CellTiter-Glo
[6] = 336 h, 14 days of administration
[7] = HuH-7 cell proliferation, 72 hours, CellTiter-Glo
[8] = 240 h, 10 days of administration

IC50 (FGFR4 kinase) [nM] | IC50 (SK-HEP-1 cells; [5]) [nM] | IC50 (HuH-7 cells; [7]) [nM] | Mean Residence Time MRT [1] [h] | Structure (SMILES) | IC50 (Hep 3B cells; [2]) [nM] | IC50 (SK-HEP-1 cells; SK-HEP1, 72 h) [nM] | inhibition in vivo at 30 mg/kg (Hep 3B cell line tumor; [3]) [%] | IC50 (FGFR1 kinase) [nM] | IC50 (HuH-7 cells; Huh-7, 72 h) [nM] | Peak Time tmax [1] [h] | AUC(0-t) [1] [ng·h/mL] | AUC(0-inf) [1] [ng·h/mL] | half-life [1] [h] | Cmax [1] [ng/mL] | IC50 (Hep 3B cells; [4]) [nM] | inhibition in vivo at 30 mg/kg (Hep 3B cell line tumor; [6]) [%] | MRT [1] [h] | inhibition in vivo at 30 mg/kg (Hep 3B cell line tumor; [8]) [%]
– | – | – | – | N#Cc1cnc(NC(=O)N2CCCc3cc(CN4CCOCC4=O)c(C=O)nc32)cc1S[C@@H]1CCOC1 [Example 56, (R)-N-(5-Cyano-4-((tetrahydrofuran-3-yl)thio)pyridin-2-yl)-7-formyl-6-((3-carbonylmorpholino)methyl)-3,4-dihydro-1,8-naphthyridin-1(2H)-carboxamide] | 22.7 | > 10000 | 46.4 | > 10000 | 50.1 | 4 | 6650 | 6780 | 0.96 | 1640 | – | – | – | –
– | – | – | – | COCCNc1cc(NC(=O)N2CCCc3cc(CN4CCCOCC4=O)c(C=O)nc32)ncc1C#N [Example 6] | 1.1 | > 10000 | 78.2 | > 10000 | 7.4 | 2 | 9120 | 9140 | 0.9 | 3500 | – | – | 1 | –
– | – | – | – | COC[C@@H](C)Oc1cc(NC(=O)N2CCCc3cc(CN4CCCOCC4=O)c(C=O)nc32)ncc1C#N [Example 28, (R)-N-(5-Cyano-4-((1-methoxypropan-2-yl)oxy)pyridin-2-yl)-7-formyl-6-((3-carbonyl-1,4-oxazepin-4-yl)methyl)-3,4-dihydro-1,8-naphthyridin-1(2H)-carboxamide] | – | – | 74.3 | – | – | – | – | – | – | – | – | – | – | –
– | – | – | – | COC1(CNc2cc(NC(=O)N3CCCc4cc(CN5CCCOCC5=O)c(C=O)nc43)ncc2C#N)CC1 [Example 25, N-(5-Cyano-4-(((1-methoxycyclopropyl)methyl)amino)pyridin-2-yl)-7-formyl-6-((3-carbonyl-1,4-oxazepin-4-yl)methyl)-3,4-dihydro-1,8-naphthyridin-1(2H)-carboxamide] | – | – | – | – | – | – | – | – | – | – | – | – | – | 68.4
– | – | – | – | CO[C@H]1CCC[C@@H]1Nc1cc(NC(=O)N2CCCc3cc(CN4CCOCC4=O)c(C=O)nc32)ncc1C#N [Example 59, N-(5-Cyano-4-(((1S,2S)-2-methoxycyclopentyl)amino)pyridin-2-yl)-7-formyl-6-((3-carbonylmorpholino)methyl)-3,4-dihydro-1,8-naphthyridin-1(2H)-carboxamide] | 8.6 | > 10000 | 86.7 | > 10000 | 18.7 | 2 | 1260 | 1260 | 0.86 | 2060 | – | – | 2.23 | –
2.31 | > 10000 | 29.5 | – | CO[C@H]1COCC1Oc1cc(NC(=O)N2CCCc3cc(CN4CCOCC4=O)c(C=O)nc32)ncc1C#N (stereo partly drawn) [Example 67, N-(5-Cyano-4-(((3,4)-trans-4-methoxytetrahydrofuran-3-yl)oxy)pyridin-2-yl)-7-formyl-6-((3-carbonylmorpholino)methyl)-3,4-dihydro-1,8-naphthyridin-1(2H)-carboxamide] | – | – | – | > 10000 | – | 4 | 3990 | 4070 | 0.88 | 2840 | 16.7 | – | 4.17 | –
0.97 | > 10000 | 11.7 | – | CO[C@H]1COCC1Nc1cc(NC(=O)N2CCCc3cc(CN4CCOCC4=O)c(C=O)nc32)ncc1C#N (stereo partly drawn) [Example 66, N-(5-Cyano-4-(((trans)-4-methoxytetrahydrofuran-3-yl)amino)pyridin-2-yl)-7-formyl-6-((3-carbonylmorpholino)methyl)-3,4-dihydro-1,8-naphthyridin-1(2H)-carboxamide] | – | – | – | > 10000 | – | 4 | 2480 | 2540 | 1 | 1880 | 3.3 | – | 3.6 | –
– | – | – | – | N#Cc1cnc(NC(=O)N2CCCc3cc(CN4CCOCC4=O)c(C=O)nc32)cc1S[C@H]1CCOC1 [Example 55, (S)-N-(5-Cyano-4-((tetrahydrofuran-3-yl)thio)pyridin-2-yl)-7-formyl-6-((3-carbonylmorpholino)methyl)-3,4-dihydro-1,8-naphthyridin-1(2H)-carboxamide] | 14.5 | > 10000 | 33 | > 10000 | 36.1 | 4 | 1940 | 1950 | 0.79 | 2340 | – | – | – | –
– | > 10000 | 2.6 | 2.48 | COC[C@@H](C)Nc1cc(NC(=O)N2CCCc3cc(CN4CCCCOC4=O)c(C=O)nc32)ncc1C#N [Example 29] | – | – | – | – | – | 2 | 9460 | 9460 | 1.27 | 3380 | 0.6 | 182 | – | –
– | – | – | – | COCCNc1cc(NC(=O)N2CCCc3cc(CN4CCCCOC4=O)c(C=O)nc32)ncc1C#N [Example 23, N-(5-Cyano-4-((2-methoxyethyl)amino)pyridin-2-yl)-7-formyl-6-((2-carbonyl-1,3-oxazepin-3-yl)methyl)-3,4-dihydro-1,8-naphthyridin-1(2H)-carboxamide] | 4.6 | > 10000 | – | – | 6.7 | 2 | 9110 | 9110 | 1.02 | 2310 | – | – | 3.5 | 89.8

Structure (SMILES) | IC50 (FGFR4 kinase) [nM] | IC50 (SK-HEP-1 cells; [5]) [nM] | IC50 (HuH-7 cells; [7]) [nM] | Mean Residence Time MRT [1] [h] | IC50 (Hep 3B cells; [2]) [nM] | IC50 (SK-HEP-1 cells; SK-HEP1, 72 h) [nM] | inhibition in vivo at 30 mg/kg (Hep 3B cell line tumor; [3]) [%] | IC50 (FGFR1 kinase) [nM] | IC50 (HuH-7 cells; Huh-7, 72 h) [nM] | Peak Time tmax [1] [h] | AUC(0-t) [1] [ng·h/mL] | AUC(0-inf) [1] [ng·h/mL] | half-life [1] [h] | Cmax [1] [ng/mL] | IC50 (Hep 3B cells; [4]) [nM] | inhibition in vivo at 30 mg/kg (Hep 3B cell line tumor; [6]) [%] | MRT [1] [h] | inhibition in vivo at 30 mg/kg (Hep 3B cell line tumor; [8]) [%]
COC[C@@H](C)Oc1cc(NC(=O)N2CCCc3cc(CN4C(=O)OCC45CC5)c(C=O)nc32)ncc1C#N [Example 42, (R)-N-(5-Cyano-4-((1-methoxypropan-2-yl)oxy)pyridin-2-yl)-7-formyl-6-((5-carbonyl-6-oxa-4-azaspiro[2.4]heptan-4-yl)methyl)-3,4-dihydro-1,8-naphthyridin-1(2H) -carboxamide] | 2.3 | > 10000 | 8.4 | – | – | – | – | > 10000 | – | 2 | 6670 | 6790 | 1.06 | 2140 | 6.7 | 103 | 2.21 | –
